Data from US11161803B2, “Ammonium carboxylate compound, crystalline form, amorphous form and preparation method thereof” (priority 2017, dated 2021).
Structures can show the parent of a compound that is named as a salt.

Tests used:
Type in all cases: physicochemical
[1] = Stability comparison test (main peak purity of the samples on storage); conditions: for decrease of purity: at 25° C. 60 days later
Protocol: Each portion was about 100 mg, placed in a zip-lock bag and added with a desiccant, then three-layer packaged by a two-layer aluminum plastic material with each layer vacuumed, and stored at 25° C. (relative humidity 60%) and 40° C. […] Relevant substances of the samples were respectively determined at 0 day, 30 days, and 60 days later.

[2] = Solid form and hygroscopicity of the salts as obtained (comparative examples); conditions: for hygroscopicity (in words) / solid form (in words): product as obtained
Protocol: (§1) A crude product of ethyl (2R,4S)-5-(biphenyl-4-yl)-4-[(3-carboxypropionyl)amino]-2-methylpentanoate (52.4 g, 0.125 mol) and acetone (629 ml) were added to a 1 L three-necked flask equipped with a mechanical stirrer, stirred and dissolved at room temperature; cooled to 0-10° C. for 5-10 min, added dropwise with potassium hydroxide solution (25 ml, 5 mol/L), after the addition was completed, kept stirring for 1 h, concentrated to dryness, added with methanol (125 ml) or ethanol (125 ml), concentrated to dryness to give potassium 4((2S,4R)-1-([1,1′-biphenyl]-4-yl)-5-ethoxy-4-methyl-5-oxopentan-2-yl)amino)-4-oxobutanoate (AHU-377 potassium salt).
as §1, with “min and” for “min,”, “sodium” for “potassium”, “sodium 4-(((2S,4R)-1-([1,1′-biphenyl]-4-yl)-5-ethoxy-4-methyl-5-oxopentan-2-yl)amino)-4-oxobutyrate” for “potassium 4((2S,4R)-1-([1,1′-biphenyl]-4-yl)-5-ethoxy-4-methyl-5-oxopentan-2-yl)amino)-4-oxobutanoate”
A crude product of ethyl (2R,4S)-5-(biphenyl-4-yl)-4-[(3-carboxypropionyl)amino]-2-methylpentanoate (52.4 g, 0.125 mol) and acetone (629 ml) were added to a 1 L three-necked flask equipped with a mechanical stirrer, stirred and dissolved at room temperature: cooled to 0-10° C. for 5-10 min and added dropwise with a basic ammonium salt such as choline (15 g, 0.125 mol), after the addition was completed, kept stirring for 1 h, concentrated to dryness, added with methanol (125 ml) or ethanol (125 ml), and concentrated to dryness.

[3] = Stability comparison test (main peak purity of the samples on storage); conditions: at 60° C. 60 days later (so in the source)
[4] = Water adsorption and desorption test (DVS, hygroscopicity); conditions: 25° C.; for change of hygroscopicity: under 80% humidity
Protocol: DVS detection of the ammonium salt: instrument model: TA Q5000SA, balance at 25° C., humidity start from 0.00%, balance for 180 min, balance for 15 min when the weight gain is less than 0.01%, 10% gradient humidity increase from 0.00% to 90.00%, each gradient maintained for 120 min; a 10% gradient humidity reduction procedure performed when the humidity is from 90.00% to 0.00%, each gradient maintained for 120 min.
DVS detection of other products: instrument model: SMS DVS Intrinsic, 0-95% RH, temperature: 25° C.
The water adsorption and desorption tests of the compound (A) of example 1 at 25° C., 0 to 95% relative humidity were carried out by a dynamic water adsorber (DVS) to determine the hygroscopicity of the compound of formula (A).
The water adsorption and desorption experiments of the crystalline form I of the compound of formula (A) prepared by methods of example 3 at 25° C., 0 to 95% relative humidity were carried out by a dynamic water adsorber (DVS) to determine the hygroscopicity of the crystalline form I of the compound of formula (A).
The water adsorption and desorption experiments of the sample of example 6 at 25° C., 0 to 95% relative humidity were carried out by a dynamic water adsorber (DVS) to determine the hygroscopicity of the amorphous form of the compound of formula (A).

[5] = Drug interaction test: stability of the mixture of crystalline form I of the compound of formula (A) + compound of formula (B)
Text: The applicant has found through repeated studies in the research of drug compatibility that the compound of formula (A), the crystalline form I, single crystal, amorphous form, crystalline form II thereof have good compatibility with the compound of formula (I) described in CN103709154A. A specific compound of formula (B) was selected to be mixed with the crystalline form I of the compound of formula (A) prepared in example 3 of the present disclosure for further stability studies.

[6] = 25° C. (relative humidity 60%), test time 0 day
[7] = 25° C. (relative humidity 60%), test time 30 days
[8] = 25° C. (relative humidity 60%), test time 60 days
[9] = 40° C. (relative humidity 75%), test time 0 day
[10] = 40° C. (relative humidity 75%), test time 30 days
[11] = 40° C. (relative humidity 75%), test time 60 days

Structure (SMILES)	main peak purity [1, 6] [%]	main peak purity [1, 7] [%]	main peak purity [1, 8] [%]	main peak purity [1, 9] [%]	main peak purity [1, 10] [%]	main peak purity [1, 11] [%]	decrease of purity [1]	hygroscopicity (in words) [2]	solid form (in words) [2]	decrease of purity [3] [%]	further results
CCOC(=O)[C@H](C)C[C@@H](Cc1ccc(-c2ccccc2)cc1)NC(=O)CCC(=O)[O-].[Na+] [AHU-377 sodium salt, sodium 4-(((2S,4R)-1-([1,1′-biphenyl]-4-yl)-5-ethoxy-4-methyl-5-oxopentan-2-yl)amino)-4-oxobutyrate]	94.12	94.16	93.75	94.12	94.06	93.86	0.37%	highly hygroscopic despite less hygroscopic than potassium salt	does not exhibit a good solid form	0.26	–
CCOC(=O)[C@H](C)C[C@@H](Cc1ccc(-c2ccccc2)cc1)NC(=O)CCC(=O)O [organic ammonium salt of 4 ((2S,4R)-1-([1,1′-biphenyl]-4-yl)]	–	–	–	–	–	–	–	high hygroscopicity	cannot be obtained in a solid form	–	–
CCOC(=O)C(C)CC(Cc1ccc(-c2ccccc2)cc1)NC(=O)CCC(=O)O (stereo not shown) [crystalline form II]	–	–	–	–	–	–	–	–	–	–	change of hygroscopicity ([4]; DVS): changes very little
CCOC(=O)[C@H](C)C[C@@H](Cc1ccc(-c2ccccc2)cc1)NC(=O)CCC(=O)O [AHU-377 potassium salt]	93.63	93.31	93.28	94.11	94.05	93.37	0.35%	highly hygroscopic	failed to exhibit a good solid form	0.74	–
CCOC(=O)C(C)CC(Cc1ccc(-c2ccccc2)cc1)NC(=O)CCC(=O)O (stereo not shown)	–	–	–	–	–	–	–	–	–	–	change of the form in DVS ([4]; range of 0 to 95% relative humidity, FIG. 15): do not change
CCOC(=O)C(C)CC(Cc1ccc(-c2ccccc2)cc1)NC(=O)CCC(=O)O (stereo not shown) [crystalline form I of the compound of formula (A)]	–	–	–	–	–	–	–	–	–	–	change of hygroscopicity ([4]; DVS): do not change much; hygroscopicity compared with AHU-377 sodium salt and AHU-377 potassium salt [2]: significantly more hygroscopic
CCOc1nc2cccc(C(=O)OC(C)OC(=O)OCc3nc(C)c(C)nc3C)c2n1Cc1ccc(-c2ccccc2-c2noc(=O)[n-]2)cc1.[K+] (stereo not shown) [Formula (B)]	–	–	–	–	–	–	–	–	–	–	stability of the potassium salt of formula (B) in the mixture with crystalline form I compared with formula (B) as a single component [5]: superior; Maximum unknown single impurity ([5]; test time 0 day): 0.05%; Total impurities ([5]; test time 0 day): 0.72%; Maximum unknown single impurity ([5]; test time 30 days): 0.05%; Total impurities ([5]; test time 30 days): 1.29%; Maximum unknown single impurity ([5]; test time 60 days): 0.06%; Total impurities ([5]; test time 60 days): 1.67%; Maximum unknown single impurity ([5]; test time 90 days): 0.04%; Total impurities ([5]; test time 90 days): 1.99%
CCOC(=O)C(C)CC(Cc1ccc(-c2ccccc2)cc1)NC(=O)CCC(=O)O [Compound of formula (A), ammonium 4-((2S,4R)-1-([1, l′-biphenyl]-4-yl)-5-ethoxy-4-methyl-5-oxopentan-2-yl)amino)-4-oxobutanoate]	99.82	99.80	99.82	99.82	99.68	99.58	almost unchanged	–	–	0.24	hygroscopicity ([4]; DVS, 0 to 95% relative humidity, FIG. 26): less than 2%; stability compared with the potassium salt and the sodium salt of AHU-377 [1]: far superior; stability compared with the organic ammonium salt of AHU-377 ([1]; by comparison in the same experiment): superior
